What was measured:
HIV protease = target: T1, HIV protease (Human immunodeficiency virus type 1 group M subtype B, UniProt P04585); test: casp8p41 production in Jurkat T cells transfected with HIV protease, flow cytometry; assay type: cell-based; settings: Jurkat T cells transfected with pEYFP-protease; 7 μM Nelfinavir or 20 μM Z-VAD-fmk added immediately following transfection; assessed the following morning
T1 construct: Jurkat T cells were transfected with 1 μg of pEYFP-protease per 10^7 cells; EYFP; expressed in transfected cells; host or cells: Jurkat T cells
Description: To determine whether casp8p41 is produced specifically as a consequence of HIV-PR activity, as opposed to being produced as a consequence of apoptotic processing of procaspase 8, casp8p41 expression was assessed following HIV-PR transfection in the presence or absence of HIV-PR inhibitor, Nelfinavir, or the pan-caspase inhibitor, z-VAD-fmk. Jurkat T cells were transfected with 1 μg of pEYFP-protease per 10^7 cells using a square wave electroporator (BTX) at 320 V for 10 msec. Immediately following transfection, 7 μM Nelfinavir or 20 μM Z-VAD-fmk was added. The following morning, casp8p41 was assessed by flow cytometry.

Jurkat T cells = test: active caspase-3 and casp8p41 in Jurkat T cells treated with apoptotic stimuli, flow cytometry; assay type: cell-based; settings: for casp8p41 immunoreactivity: same stimuli, 10 μM campothecin for 8 hours; for apoptosis, as determined by activation of caspase-3: 50 ng/mL TNF-α plus 5 μg/mL cycloheximide, 100 ng/mL SuperKillerTRAIL, 250 ng/mL anti-Fas CH-11, 2 μM Tat, 1 μg/mL gp120 for 8 hours, 10 μM Vpr-derived peptide 4 hours
Description: It was determined whether casp8p41 is generated in response to other apoptotic stimuli. Jurkat T cells (10^6) were treated with 10 μM campothecin, 100 ng/mL SuperKillerTRAIL™ (Axxora), 250 ng/mL anti-Fas antibody CH-11 (Upstate Cell Signaling Solutions), 50 ng/mL TNF-α (R&D Systems) plus 5 μg/mL cycloheximide, 2 μM HIV Tat (NIH AIDS Research and Reference Reagent Program), 1 μg/mL of HIV gp120 (ImmunoDiagnostic), or vehicle controls for 8 hours at 37° C. For Vpr-induced apoptosis, Jurkat T cells were incubated with isotonic glucose-Hepes buffer (2.4% glucose, 13 mM Hepes, 68 mM NaCl, 1.3 mM KCl, 4 mM Na2HPO4, and 0.7 mM KH2PO4, pH 7.2) alone or containing 10 μM of Vpr-derived peptide (amino acids 61-75; NIH AIDS Research and Reference Reagent Program) for 4 hours at 37° C. After the incubation, cells were washed in PBS and incubated overnight at 37° C. After incubation for the indicated times, cells were fixed in 2% paraformaldehyde at 4° C. overnight. To determine the presence of casp8p41 on apoptotic cells, cells were permeabilized with PBS+0.1% NP-40 on ice for two minutes. Cells were then incubated with the mouse anti-casp8p41 antibody, followed by PE-labeled goat anti-mouse antibody (Becton Dickinson ImmunoCytochemistry) and FITC-labeled rabbit anti-active caspase-3 antibody.

Compound | casp8p41 production (HIV protease) | casp8p41 immunoreactivity (Jurkat T cells) | apoptosis, as determined by activation of caspase-3 (Jurkat T cells)
Cc1c(O)cccc1C(=O)N[C@@H](CSc1ccccc1)[C@H](O)CN1C[C@H]2CCCC[C@H]2C[C@H]1C(=O)NC(C)(C)C [Nelfinavir] | abrogated casp8p41 production | – | –
CC[C@@]1(O)C(=O)OCc2c1cc1n(c2=O)Cc2cc3ccccc3nc2-1 [campothecin] | – | casp8p41 was not produced | –
TNF-α | – | did not generate casp8p41 immunoreactivity | did indeed induce apoptosis
TRAIL | – | did not generate casp8p41 immunoreactivity | did indeed induce apoptosis
Z-VAD-fmk | did not alter casp8p41 production | – | –

Reference: patent US20100062462A1, “IMMUNODEFICIENCY VIRUSES” (priority 2005, published 2010)
